According to patent publication US11566007B2, “Ras inhibitors” (Revolution Medicines, Inc., priority 2019, dated 2023):
Several values for one entry are separate records, joined by “and”; a condition that tells them apart may be missing. Identical values can stand only once.

Experiments:
NRAS G12C = NRAS G12C (Homo sapiens (Human), UniProt P01111+P62937, G12C); assay: Ras-Raf (BRAF RBD) disruption / FRET / MOA assay, NRAS G12C; type: biochemical; conditions: read-out: IC50* NRAS G12C FRET data
How it was run: (§1)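 A 10-point, 3-fold dilution series topping at 30 μM final was incubated 3 h at 25° C with the Ras/cyclophilin A/BRAF RBD mixture.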

[1] = system: NCI-H358 cells (K-Ras G12C); assay: Potency assay: pERK in NCI-H358 cells; type: cell-based, human; conditions: Homo sapiens, NCI-H358; H358 KRAS G12C; read-out: pERK EC50
How it was run: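 pERK decrease read by AlphaLISA SureFire p-ERK1/2 or In-Cell Western after 4 h compound exposure at 37 °C, 5% CO2.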

K-Ras G12C = K-Ras G12C (Homo sapiens (Human), UniProt P01116+P62937, G12C); assay: Ras-Raf (BRAF RBD) disruption / FRET / MOA assay, KRAS G12C; type: biochemical; conditions: KRAS G12C; Ras-Raf disruption/FRET/MOA assay; read-out: IC50* KRAS G12C FRET data
How it was run: as §1

NRAS Q61R = NRAS Q61R (Homo sapiens (Human), UniProt P01111+P62937, Q61R); assay: Ras-Raf (BRAF RBD) disruption / FRET / MOA assay, NRAS Q61R; type: biochemical; conditions: NRAS Q61R; Ras-Raf disruption/FRET/MOA assay; read-out: IC50* NRAS Q61R FRET data
How it was run: (§2)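 Compounds (30 μM top final, 10-point 3-fold dilutions) incubated 3 h at 25° C with nucleotide-loaded Ras, cyclophilin A and BRAF RBD. Detection with 10 nM anti-His Eu-W1024 and 50 nM anti-GST allophycocyanin over another 1.5 h. Lowered TR-FRET ratio relative to DMSO wells gives IC50.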

NRAS WT = NRAS WT (Homo sapiens (Human), UniProt P01111+P62937); assay: Ras-Raf (BRAF RBD) disruption / FRET / MOA assay, NRAS WT; type: biochemical; conditions: read-out: IC50* NRAS WT FRET data
How it was run: as §2

KRAS G12V = KRAS G12V (Homo sapiens (Human), UniProt P01116+P62937, G12V); assay: Ras-Raf (BRAF RBD) disruption / FRET / MOA assay, KRAS G12V; type: biochemical; conditions: read-out: IC50* KRAS G12V FRET data
How it was run: as §1

Chain of NRAS WT (P01111 whole entry): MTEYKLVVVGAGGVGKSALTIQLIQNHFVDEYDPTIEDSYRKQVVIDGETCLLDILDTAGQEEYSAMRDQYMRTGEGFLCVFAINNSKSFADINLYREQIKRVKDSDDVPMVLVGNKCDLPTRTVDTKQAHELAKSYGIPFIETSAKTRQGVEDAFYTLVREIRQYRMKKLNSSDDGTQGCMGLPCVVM
Chain of NRAS WT (P62937 whole entry): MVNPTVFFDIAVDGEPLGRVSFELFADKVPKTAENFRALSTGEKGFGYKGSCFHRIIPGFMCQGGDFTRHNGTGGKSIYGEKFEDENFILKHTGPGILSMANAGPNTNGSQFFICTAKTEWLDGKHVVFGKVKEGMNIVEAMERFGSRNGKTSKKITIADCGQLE
Chain of KRAS G12V (P01116-2 other isoform, or with tags, fused parts or gaps G12V): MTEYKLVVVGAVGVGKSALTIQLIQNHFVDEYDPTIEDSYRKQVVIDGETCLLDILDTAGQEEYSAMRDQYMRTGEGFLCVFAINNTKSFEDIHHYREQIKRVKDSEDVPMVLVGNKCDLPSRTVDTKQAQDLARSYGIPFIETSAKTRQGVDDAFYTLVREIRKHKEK
Chain of KRAS G12V (P62937 whole entry): as the sequence (P62937 whole entry) above
Chain of NRAS G12C (P01111 whole entry G12C): as the sequence (P01111 whole entry) above, with G12C counted along it
Chain of NRAS G12C (P62937 whole entry): as the sequence (P62937 whole entry) above
Chain of NRAS Q61R (P01111 whole entry Q61R): as the sequence (P01111 whole entry) above, with Q61R counted along it
Chain of NRAS Q61R (P62937 whole entry): as the sequence (P62937 whole entry) above
Chain of K-Ras G12C (P01116-2 other isoform, or with tags, fused parts or gaps G12C): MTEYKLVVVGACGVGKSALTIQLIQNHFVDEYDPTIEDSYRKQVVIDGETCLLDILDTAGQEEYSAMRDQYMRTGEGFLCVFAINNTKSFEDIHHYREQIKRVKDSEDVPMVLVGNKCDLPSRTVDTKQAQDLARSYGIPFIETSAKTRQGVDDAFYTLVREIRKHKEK
Chain of K-Ras G12C (P62937 whole entry): as the sequence (P62937 whole entry) above

| Structure (SMILES) | IC50 (NRAS G12C) [µM] | EC50 [1] [µM] | IC50 (K-Ras G12C) [µM] | IC50 (NRAS Q61R) [µM] | IC50 (NRAS WT) [µM] | IC50 (KRAS G12V) |
| --- | --- | --- | --- | --- | --- | --- |
| CCn1c(-c2cccnc2[C@H](C)OC)c2c3cc(ccc31)-c1cccc(c1)C[C@H](NC(=O)[C@H](C(C)C)N1CO[C@@]3(CCN(C(=O)C#CC(C)(C)N4CCC4)C3)C1=O)C(=O)N1CCC[C@H](N1)C(=O)OCC(C)(C)C2 (atropisomer, axis not shown) [Example A733] | 0.01 to 0.1 | < 5 | 0.01 to 0.1 | > 10 | > 10 | 1 to 10 µM |
| C=CC(=O)N1CCN(C(=O)N(C)[C@H](C(=O)N[C@H]2Cc3nc(cs3)-c3ccc4c(c3)c(c(-c3cccnc3[C@H](C)OC)n4CC)CC(C)(C)COC(=O)[C@@H]3CCCN(N3)C2=O)C(C)C)[C@@H]2C[C@@H]21 (atropisomer, axis not shown) [Example A736] | 0.01 to 0.1 | < 5 | 0.01 to 0.1 | 0.01 to 0.1 | 0.01 to 0.1 | 0.1 to 1 µM |
| C=CC(=O)C1CC[C@H](C(=O)N(C)[C@H](C(=O)N[C@H]2Cc3cc(O)cc(c3)-c3ccc4c(c3)c(c(-c3cnn(C)c3[C@H](C)OC)n4CC)CC(C)(C)COC(=O)[C@@H]3CCCN(N3)C2=O)C(C)C)C1 (stereo partly drawn) [Example A166] | 0.01 to 0.1 | < 5 | 0.01 to 0.1 | 1 to 10 | 0.1 to 1 | 0.1 to 1 µM |
| C=CC(=O)N1CC[C@H](C(=O)N(C)[C@H](C(=O)N[C@H]2Cc3cc(O)cc(c3)-c3ccc4c(c3)c(c(-c3cncc5c3[C@@H](OC)CC5)n4CC)CC(C)(C)COC(=O)[C@@H]3CCCN(N3)C2=O)C(C)C)C1 [Example A275] | 0.01 to 0.1 | < 5 | 0.01 to 0.1 | 0.1 to 1 | 0.01 to 0.1 | 0.01 to 0.1 µM |
| C=CC(=O)N1CC[C@H](C(=O)N(C)[C@H](C(=O)N[C@H]2Cc3nc(ns3)-c3ccc4c(c3)c(c(-c3cncnc3)n4CC)CC(C)(C)COC(=O)[C@@H]3CCCN(N3)C2=O)C(C)C)C1 [Example A285] | > 10 | < 5 | > 10 | > 10 | > 10 | > 10 µM |
| C=CC(=O)N1CC[C@H](C(=O)N(C)[C@H](C(=O)N[C@H]2Cc3cc(O)cc(c3)-c3ccc4c(c3)c(c(-c3cnn5c3[C@@H](OC)CCC5)n4CC)CC(C)(C)COC(=O)[C@@H]3CCCN(N3)C2=O)C(C)C)C1 [Example A300] | < 0.01 | < 5 | < 0.01 | 0.1 to 1 | 0.01 to 0.1 | 0.01 to 0.1 µM |
| CCn1c(-c2cccnc2[C@H](C)OC)c2c3cc(ccc31)-c1cccc(c1)C[C@H](NC(=O)C(COC1CN(C(=O)C#CC(C)(C)N(C)C)C1)C(C)C)C(=O)N1CCC[C@H](N1)C(=O)OCC(C)(C)C2 (stereo partly drawn) [Example A316, (2R)-2-(((1-(4-(dimethylamino)-4-methylpent-2-ynoyl)azetidin-3-yl)oxy)methyl)-N-((6^3S,4S)-1^1-ethyl-1^2-(2-((S)-1-methoxyethyl)pyridin-3-yl)-10,10-dimethyl-5,7-dioxo-6^1,6^2,6^3,6^4,6^5,6^6-hexahydro-1^1H-8-oxa-1(5,3)-indola-6(1,3)-pyridazina-2(1,3)-benzenacycloundecaphane-4-yl)-3-methylbutanamide] | < 0.01 | < 5 | < 0.01 | > 10 | > 10 | 1 µM to 10 µM and > 10 µM (2×) |
| C=CC(=O)N1CCC(C(=O)N(C)[C@H](C(=O)N[C@H]2Cc3cc(CF)cc(c3)-c3ccc4c(c3)c(c(-c3cccnc3[C@H](C)OC)n4CC(F)(F)F)CC(C)(C)COC(=O)[C@@H]3CCCN(N3)C2=O)C(C)C)C1 (stereo partly drawn) [Example A659] | 0.01 to 0.1 | < 5 | 0.01 to 0.1 | 0.1 to 1 | 0.1 to 1 | 0.1 to 1 µM |
| CCn1c(-c2cccnc2[C@H](C)OC)c2c3cc(ccc31)N1CCO[C@@H](C[C@H](NC(=O)[C@H](C(C)C)N(C)C(=O)[C@@]3(F)CCC(C(=O)C#CC(C)(C)N4CCC4)C3)C(=O)N3CCC[C@H](N3)C(=O)OCC(C)(C)C2)C1 (stereo partly drawn) [Example A726] | 0.01 to 0.1 | < 5 | < 0.01 | > 10 | 1 to 10 | 1 to 10 µM |
